Data from ChEMBL document CHEMBL1128876, “Nitrogen transfer in E. coli glucosamine-6P synthase. Investigations using substrate and bisubstrate analogs” (Bioorg Med Chem Lett, 1995).

Experiments:
[1] = Tested for inhibition of glucosamine-6P synthase; set-up: species or system Escherichia coli
[2] = Tested for inhibition of fructose-6P synthase

SMILES	Ki [1] [µM]	Ki [2] [µM]
NC(=O)/C=C/C(=O)NCC(N)C(=O)O (centres undefined)	0.15	
NC(CC1CCC(=O)C2OC12)C(=O)O (centres undefined)	0.22	
NC(CO)C(O)C(O)C(O)COP(=O)(O)O (centres undefined)		25
O=C(O)C1CCC=N1 (racemic)	23	
